# In ChEMBL document CHEMBL4699440, “Comprehensive review on the anti-bacterial activity of 1,2,3-triazole hybrids” (Eur J Med Chem, 2019):
# Numbered stars: 1 amine (or outer) side, 2 acyl side, 3 side chain; on linkers, the order of the positions; unused ones are H or OH. Square brackets hold non-standard residues; d marks the D form. Peptide text beside a SMILES is read from it. * marks the point of attachment. X1 = CC(C)(C(=O)c1ccc(C(F)(F)F)cc1)C(=O)*; βPro(3R) = O=C([C@@H]1CCN([*:1])C1)[*:2]; Phe(ol) = N[C@H](CO)Cc1ccccc1; Aib = CC(C)(N)C(=O)O
# Tests used:
# [1] = Cytotoxicity against human KB cells; assay type: cell-based; details: human, KB cells; read-out: MIC
# [2] = tested on: Pseudomonas aeruginosa; assay: Antibacterial activity against Pseudomonas aeruginosa 12 incubated for 20 hrs by agar dilution method; assay type: functional
# [3] = tested on: Escherichia coli; assay: Antibacterial activity against Escherichia coli NIHJ JC2 incubated for 20 hrs by agar dilution method; assay type: functional
# [4] = tested on: Staphylococcus aureus; assay: Antibacterial activity against Staphylococcus aureus by agar dilution method; assay type: functional
# [5] = tested on: Bacillus cereus; assay: Antibacterial activity against Bacillus cereus by agar dilution method; assay type: functional
# [6] = tested on: Escherichia coli; assay: Antibacterial activity against Escherichia coli ATCC 25922 incubated for 24 hrs by tube dilution method; assay type: functional
# [7] = tested on: Klebsiella pneumoniae; assay: Antibacterial activity against Klebsiella pneumoniae ATCC 15380 incubated for 24 hrs by tube dilution method; assay type: functional
# [8] = tested on: Pseudomonas aeruginosa; assay: Antibacterial activity against Pseudomonas aeruginosa ATCC 12454 incubated for 24 hrs by tube dilution method; assay type: functional
# [9] = tested on: Staphylococcus aureus; assay: Antibacterial activity against Staphylococcus aureus ATCC 25923 incubated for 24 hrs by tube dilution method; assay type: functional
# [10] = tested on: Streptococcus pyogenes; assay: Antibacterial activity against Streptococcus pyogenes ATCC 35552 incubated for 24 hrs by tube dilution method; assay type: functional
# [11] = tested on: Streptococcus pneumoniae; assay: Antibacterial activity against Streptococcus pneumoniae RCMB 010010 by broth dilution method; assay type: functional
# [12] = tested on: Bacillus subtilis; assay: Antibacterial activity against Bacillus subtilis RCMB 010067 by broth dilution method; assay type: functional
# [13] = tested on: Staphylococcus aureus; assay: Antibacterial activity against Staphylococcus aureus RCMB 010025 by broth dilution method; assay type: functional
# [14] = tested on: Pseudomonas aeruginosa; assay: Antibacterial activity against Pseudomonas aeruginosa RCMB 010043 by broth dilution method; assay type: functional
# [15] = tested on: Escherichia coli; assay: Antibacterial activity against Escherichia coli RCMB 010052 by broth dilution method; assay type: functional
# [16] = tested on: Klebsiella pneumoniae; assay: Antibacterial activity against Klebsiella pneumonia RCMB 010058 by broth dilution method; assay type: functional
# [17] = tested on: Bacillus cereus; assay: Antibacterial activity against Bacillus cereus ATCC 10876 incubated for 24 hrs by microdilution method; assay type: functional
# [18] = tested on: Enterococcus faecalis; assay: Antibacterial activity against Enterococcus faecalis ATCC 29212 incubated for 24 hrs by microdilution method; assay type: functional
# [19] = tested on: Staphylococcus aureus; assay: Antibacterial activity against Staphylococcus aureus ATCC 25923 incubated for 24 hrs by microdilution method; assay type: functional
# [20] = tested on: Proteus mirabilis; assay: Antibacterial activity against Proteus mirabilis ATCC 35659 incubated for 24 hrs by microdilution method; assay type: functional
# [21] = tested on: Pseudomonas aeruginosa; assay: Antibacterial activity against Pseudomonas aeruginosa ATCC 27853 incubated for 24 hrs by microdilution method; assay type: functional
# [22] = tested on: Bacillus subtilis; assay: Antibacterial activity against Bacillus subtilis MTCC 441 incubated for 24 hrs by two-fold serial dilution method; assay type: functional
# [23] = tested on: Pseudomonas aeruginosa; assay: Antibacterial activity against Pseudomonas aeruginosa MTCC 424 incubated for 24 hrs by two-fold serial dilution method; assay type: functional
# [24] = tested on: Escherichia coli; assay: Antibacterial activity against Escherichia coli MTCC 1652 incubated for […] by two-fold serial dilution method; assay type: functional; details: time 24 hrs
# [25] = tested on: Escherichia coli; assay: Antibacterial activity against Escherichia coli MTCC […] by serial dilution method; assay type: functional
# [26] = tested on: Bacillus subtilis; assay: Antibacterial activity against Bacillus subtilis MTCC 441 by serial dilution method; assay type: functional
# [27] = tested on: Staphylococcus epidermidis; assay: Antibacterial activity against Staphylococcus epidermidis MTCC 6880 by serial dilution method; assay type: functional
# [28] = tested on: Pseudomonas aeruginosa; assay: Antibacterial activity against Pseudomonas aeruginosa MTCC 424 by serial dilution method; assay type: functional
# [29] = tested on: Bacillus cereus; assay: Antibacterial activity against Bacillus cereus MTCC 430 incubated for 24 hrs by macrodilution tube method; assay type: functional
# [30] = tested on: Bacillus subtilis; assay: Antibacterial activity against Bacillus subtilis MTCC 441 incubated for 24 hrs by microdilution method; assay type: functional
# [31] = tested on: Staphylococcus aureus; assay: Antibacterial activity against Staphylococcus aureus MTCC 96 incubated for 24 hrs by microdilution method; assay type: functional
# [32] = tested on: Staphylococcus epidermidis; assay: Antibacterial activity against Staphylococcus epidermidis incubated for 24 hrs by microdilution method; assay type: functional
# [33] = tested on: Pseudomonas aeruginosa; assay: Antibacterial activity against Pseudomonas aeruginosa MTCC 741 incubated for 24 hrs by microdilution method; assay type: functional
# [34] = tested on: Klebsiella pneumoniae; assay: Antibacterial activity against Klebsiella pneumoniae MTCC 618 incubated for 24 hrs by microdilution method; assay type: functional
# [35] = tested on: Staphylococcus aureus; assay: Antibacterial activity against Staphylococcus aureus 209P JC1 incubated for 20 hrs by agar dilution method; assay type: functional
# [36] = tested on: Staphylococcus epidermidis; assay: Antibacterial activity against methicillin-resistant Staphylococcus epidermidis 13-3; assay type: functional
# [37] = tested on: Staphylococcus aureus; assay: Antibacterial activity against methicillin-sensitive Staphylococcus aureus ATCC 29213; assay type: functional
# [38] = tested on: Staphylococcus epidermidis; assay: Antibacterial activity against methicillin-sensitive Staphylococcus epidermidis ATCC 12228; assay type: functional
# [39] = tested on: Staphylococcus aureus; assay: Antibacterial activity against methicillin-resistant Staphylococcus aureus ATCC 33591; assay type: functional
# [40] = tested on: Enterococcus faecium; assay: Antibacterial activity against Enterococcus faecium ATCC 700221; assay type: functional
# [41] = tested on: Enterococcus faecium; assay: Antibacterial activity against Enterococcus faecium 13-7; assay type: functional
# [42] = tested on: Klebsiella pneumoniae; assay: Antibacterial activity against Klebsiella pneumoniae ATCC 700603; assay type: functional
# [43] = tested on: Klebsiella pneumoniae; assay: Antibacterial activity against Klebsiella pneumoniae 7; assay type: functional
# [44] = tested on: Pseudomonas aeruginosa; assay: Antibacterial activity against Pseudomonas aeruginosa ATCC 27853; assay type: functional
# [45] = tested on: Acinetobacter calcoaceticus; assay: Antibacterial activity against Acinetobacter calcoaceticus ATCC 19606; assay type: functional
# [46] = tested on: Klebsiella aerogenes; assay: Antibacterial activity against Enterobacter aerogenes ATCC 13048; assay type: functional
# [47] = tested on: Serratia marcescens; assay: Antibacterial activity against Serratia marcescens ATCC 21074; assay type: functional
# [48] = tested on: Morganella morganii; assay: Antibacterial activity against Morganella morganii ATCC 25830; assay type: functional
# [49] = tested on: Providencia rettgeri; assay: Antibacterial activity against Providencia rettgeri ATCC 31052; assay type: functional
# [50] = tested on: Proteus vulgaris; assay: Antibacterial activity against Proteus vulgaris ATCC 29905; assay type: functional
# [51] = tested on: Proteus mirabilis; assay: Antibacterial activity against Proteus mirabilis 13-1; assay type: functional
# [52] = tested on: Stenotrophomonas maltophilia; assay: Antibacterial activity against Stenotrophomonas maltophilia ATCC 13636; assay type: functional
# [53] = tested on: Citrobacter freundii; assay: Antibacterial activity against Citrobacter freundii ATCC 43864; assay type: functional
# [54] = tested on: Staphylococcus aureus; assay: Antibacterial activity against Staphylococcus aureus MTCC 7443 incubated for 24 hrs by two-fold serial dilution method; assay type: functional
# [55] = tested on: Aspergillus brasiliensis; assay: Antifungal activity against Aspergillus brasiliensis MTCC 1344 incubated for 7 days by microdilution method; assay type: functional; details: MTCC 1344, 168 h, time 7 day
# [56] = tested on: Candida albicans; assay: Antifungal activity against Candida albicans MTCC 227 incubated for 2 days by microdilution method; assay type: functional; details: MTCC 227, 48 h, time 2 day
# [57] = tested on: Bacillus subtilis; assay: Potency index, ratio of ciprofloxacin MIC to test compound MIC for antimicrobial activity against Bacillus subtilis MTCC 441 incubated for 24 hrs by two-fold serial dilution method; assay type: functional
# [58] = tested on: Staphylococcus aureus; assay: Potency index, ratio of ciprofloxacin MIC to test compound MIC for antimicrobial activity against Staphylococcus aureus MTCC 7443 incubated for 24 hrs by two-fold serial dilution method; assay type: functional
# [59] = tested on: Pseudomonas aeruginosa; assay: Potency index, ratio of ciprofloxacin MIC to test compound MIC for antimicrobial activity against Pseudomonas aeruginosa MTCC 424 incubated for 24 hrs by two-fold serial dilution method; assay type: functional
# [60] = tested on: Escherichia coli; assay: Potency index, ratio of ciprofloxacin MIC to test compound MIC for antimicrobial activity against Escherichia coli MTCC 1652 incubated for […] by two-fold serial dilution method; assay type: functional
smiles,measurement,setting,value
CC(C)C[C@H](NC(=O)CNC(=O)C(C)(C)NC(=O)[C@@H](NC(=O)C(C)(C)NC(=O)[C@H](CCC(N)=O)NC(=O)[C@H](C)NC(=O)C(C)(C)NC(=O)[C@H](C)NC(=O)C(C)(C)NC(=O)[C@@H]1CCN(C(=O)C(C)(C)C(=O)c2ccc(C(F)(F)F)cc2)C1)C(C)C)C(=O)NC(C)(C)C(=O)N1CCC[C@H]1C(=O)N[C@H](C(=O)NC(C)(C)C(=O)NC(C)(C)C(=O)N[C@@H](CCC(N)=O)C(=O)N[C@@H](CCC(N)=O)C(=O)N[C@H](CO)Cc1ccccc1)C(C)C (X1-[βPro(3R)][Aib]A[Aib]AQ[Aib]V[Aib]GL[Aib]PV[Aib][Aib]QQ[Phe(ol)]),MCC,[1],2.9 µg/mL
O=C(O)c1cn(C2CC2)c2cc(N3CCNCC3)c(F)cc2c1=O [CIPROFLOXACIN],MIC,[2],0.0063 µg/mL
same,MIC,[3],0.0063 µg/mL
same,MIC,[4],2 µg/mL
same,MIC,[5],2 µg/mL
same,MIC,[6],5.5 µg/mL
same,MIC,[7],5.5 µg/mL
same,MIC,[8],5.5 µg/mL
same,MIC,[9],5.5 µg/mL
same,MIC,[10],5.5 µg/mL
same,MIC,[11],≥ 5 µg/mL
same,MIC,[12],≥ 5 µg/mL
same,MIC,[13],≥ 5 µg/mL
same,MIC,[14],≥ 5 µg/mL
same,MIC,[15],≥ 5 µg/mL
same,MIC,[16],≥ 5 µg/mL
same,MIC,[17],1 µg/mL
same,MIC,[18],1 µg/mL
same,MIC,[19],1 µg/mL
same,MIC,[20],1 µg/mL
same,MIC,[21],1 µg/mL
same,MIC,[22],0.0377 µg/mL
same,MIC,[23],0.0377 µg/mL
same,MIC,[24],37.7 µM
same,MIC,[25],4.7 µM
same,MIC,[26],4.7 µM
same,MIC,[27],4.7 µM
same,MIC,[28],4.7 µM
same,MIC,[29],6.25 µg/mL
same,MIC,[30],0.39 µg/mL
same,MIC,[31],0.39 µg/mL
same,MIC,[32],0.39 µg/mL
same,MIC,[33],0.39 µg/mL
same,MIC,[34],0.39 µg/mL
same,MIC,[35],0.0063 µg/mL
same,MIC,[36],0.03 µg/mL
same,MIC,[37],0.03 µg/mL
same,MIC,[38],0.03 µg/mL
same,MIC,[39],0.03 µg/mL
same,MIC,[40],> 128 µg/mL
same,MIC,[41],> 128 µg/mL
same,MIC,[42],0.03 µg/mL
same,MIC,[43],≤ 0.03 µg/mL
same,MIC,[44],0.03 µg/mL
same,MIC,[45],0.03 µg/mL
same,MIC,[46],≤ 0.03 µg/mL
same,MIC,[47],0.03 µg/mL
same,MIC,[48],≤ 0.03 µg/mL
same,MIC,[49],≤ 0.03 µg/mL
same,MIC,[50],≤ 0.03 µg/mL
same,MIC,[51],≤ 0.03 µg/mL
same,MIC,[52],0.03 µg/mL
same,MIC,[53],≤ 0.03 µg/mL
O=C(Cn1cc(COc2ccc(OCc3cn(CC(=O)Nc4ccc([N+](=O)[O-])cc4)nn3)cc2)nn1)Nc1ccc([N+](=O)[O-])cc1,MIC,[22],0.0199 µM
same,MIC,[54],0.0199 µM
same,MIC,[23],0.0199 µM
same,MIC,[55],0.0199 µM
same,MIC,[56],0.0199 µM
same,Ratio,[57],2
same,Ratio,[58],2
same,Ratio,[59],2
same,Ratio,[60],2
